According to patent US8236789B2, “1-adamantyl azetidin-2-one derivatives and drugs containing same” (Kowa Company, Ltd., priority 2008, dated 2012):

Legend:
[1] = biological target: T1, human 11β-HSD1 (Homo sapiens, UniProt P28845); experiment: Enzyme inhibitory activity assay, lysate of HEK293 cells stably expressing human 11β-HSD1, cortisol by competitive ELISA; format: biochemical; details: Table 1; cell lysate, 100 nmol/L cortisone, NADPH, 37° C. 1 hour; read-out: in vitro assay (IC50 uM) h HSD1
T1 construct: expressed in transfected cells
Procedure: (§1) 1. Human 11β-HSD1-, Human 11β-HSD2- and Mouse 11β-HSD1-Gene Clonings and Establishment of Stably Expressing Cells
(§2) Human 11β-HSD1- and human 11β-HSD2-expressing vectors were transfected into human kidney-derived cell line, HEK293 cells, using a transfection reagent, jet PEI (Funakoshi). Mouse 11β-HSD1 was transfected to Chinese hamster ovary-derived cell line, CHO-K1 cells. Selection was conducted with 200-400 μg/mL of zeocine (Invitrogen) to provide stably expressing-cell clones. The stably expressing cells were suspended in buffer solution A (20 mmol/L Tris-HCl, pH 7.4, 250 mmol/L sucrose, 1 mmol/L EGTA, 1 mmol/L EDTA, 1 mmol/L MgCl2), sonicated, and then stored at −80° C.
(§3) 2. Assay of Enzyme Inhibitory Activity
(§4) An enzymatic reaction was conducted using a polystyrene 96-well plate. Each well was added with 1 μL of a test agent dissolved in DMSO and then diluted (0.003 to 3 mmol/L), and further added with 10 μL of cell lysate diluted to a concentration of 0.1 mg/mL to 0.4 mg/mL. Next, 90 μL of buffer solution A containing substrate (100 nmol/L cortisone or cortisol) and coenzyme (400 μmol/L NADPH or NAD+) was added and the mixture was incubated at 37° C. for 1 hour. The enzymatic reaction was stopped by treating at 95° C. for 3 minutes. Cortisol that was present in the reaction solution was determined by a competitive ELISA shown below.
(§5) Anti-rabbit IgG antibody (Chemi-con) diluted to 2 μg/mL with carbonate buffer solution (pH 9.6) was added in 100 μL each to a 96-well immuno plate (Nunc) and immobilized by an incubation at 4° C. overnight. […] After washed three times with buffer solution B containing 0.05% Tween 20, the plates were allowed to develop color by adding 100 μL, of color reagent, TMB (Moss). The color reaction was stopped by 25 μL of 1 mol/L sulfuric acid and the absorbance was determined at 450 nm with a microplate reader (Molecular Device, VersaMax).

[2] = biological target: T2, mouse 11β-HSD1 (Mus musculus, UniProt P50172); experiment: Enzyme inhibitory activity assay, lysate of CHO-K1 cells stably expressing mouse 11β-HSD1, cortisol by competitive ELISA; format: biochemical; details: Table 2; cell lysate, 100 nmol/L cortisone, NADPH, 37° C. 1 hour; read-out: in vitro assay (IC50 uM) m HSD1
T2 construct: expressed in transfected cells
Procedure: as §1, §2, §3, §4, §5

T2 sequence (P50172 whole entry): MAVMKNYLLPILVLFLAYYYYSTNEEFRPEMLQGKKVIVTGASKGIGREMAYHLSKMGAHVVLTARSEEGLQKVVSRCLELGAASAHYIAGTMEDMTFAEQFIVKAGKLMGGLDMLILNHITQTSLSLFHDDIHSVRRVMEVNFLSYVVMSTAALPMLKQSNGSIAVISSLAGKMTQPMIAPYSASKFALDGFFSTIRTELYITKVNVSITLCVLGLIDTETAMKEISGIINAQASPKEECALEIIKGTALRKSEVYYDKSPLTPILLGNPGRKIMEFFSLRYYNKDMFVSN
T1 sequence (P28845 whole entry): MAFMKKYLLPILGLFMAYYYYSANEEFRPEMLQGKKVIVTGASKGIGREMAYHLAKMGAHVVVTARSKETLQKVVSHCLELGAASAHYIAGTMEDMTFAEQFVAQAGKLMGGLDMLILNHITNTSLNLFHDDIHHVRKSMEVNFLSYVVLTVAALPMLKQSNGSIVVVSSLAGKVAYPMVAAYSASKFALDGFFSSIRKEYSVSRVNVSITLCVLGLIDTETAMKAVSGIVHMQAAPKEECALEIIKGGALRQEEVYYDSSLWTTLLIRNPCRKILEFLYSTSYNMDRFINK

IC50 [1] [µM] | IC50 [2] [µM] | Compound
0.005 | 0.035 | CC1(C)C(=O)N([C@H]2C3CC4CC2C[C@](C(N)=O)(C4)C3)C1c1cccc(Cl)c1Cl (stereo partly drawn) [Example 9, trans-4-[2-(2,3-dichlorophenyl)-3,3-dimethyl-4-oxoazetidin-1-yl]-1-adamantane carboxyamide]
0.26 | 0.42 | CC1(C)C(=O)N([C@H]2C3CC4CC2C[C@](C(=O)O)(C4)C3)C1c1cccc2ccccc12 (stereo partly drawn) [Example 11, trans-4-[2-(naphthalen-1-yl)-3,3-dimethyl-4-oxoazetidin-1-yl]-1-adamantane carboxylic acid]
0.031 | 0.031 | CC1(C)C(=O)N([C@H]2C3CC4CC2C[C@](C(N)=O)(C4)C3)C1c1cccc2c1OCO2 (stereo partly drawn) [Example 15, trans-4-[2-(benzo[d][1,3]dioxol-4-yl)-3,3-dimethyl-4-oxoazetidin-1-yl]-1-adamantane carboxyamide]
0.013 | 0.25 | COC(=O)[C@]12CC3CC(C1)[C@@H](N1C(=O)C(C)(C)C1c1cccc(Cl)c1Cl)C(C3)C2 (stereo partly drawn) [Example 7, methyl trans-4-[2-(2,3-dichlorophenyl)-3,3-dimethyl-4-oxoazetidin-1-yl]-1-adamantane carboxylate]
0.41 | – | CC1(C)C(=O)N([C@H]2C3CC4CC2C[C@](C(N)=O)(C4)C3)C1c1cccc2cnccc12 (stereo partly drawn) [Example 16, trans-4-[2-(isoquinolin-5-yl)-3,3-dimethyl-4-oxoazetidin-1-yl]-1-adamantane carboxyamide]
0.057 | 0.31 | CC1(C)C(=O)N([C@H]2C3CC4CC2C[C@](Cl)(C4)C3)C1c1cccc(Cl)c1Cl (stereo partly drawn) [Example 3, trans-1-(5-chloroadamantan-2-yl)-3,3-dimethyl-4-(2,3-dichlorophenyl)azetidin-2-one]
0.56 | 0.87 | CC1(C)C(=O)N([C@H]2C3CC4CC2C[C@@](Cl)(C4)C3)C1c1cccc2ccccc12 (stereo partly drawn) [Example 6, cis-1-(5-chloroadamantan-2-yl)-3,3-dimethyl-4-(naphthalen-1-yl)azetidin-2-one]
0.0075 | 0.0056 | CC1(C)C(=O)N([C@H]2C3CC4CC2C[C@](O)(C4)C3)C1c1cccc2ccccc12 (stereo partly drawn) [Example 47, trans-1-(5-hydroxyadamantan-2-yl)-3,3-dimethyl-4-(naphthalen-1-yl)azetidin-2-one]
0.02 | 0.18 | CC1(C)C(=O)N(C2C3CC4CC(C3)CC2C4)C1c1cccc(Cl)c1F (stereo not shown) [Example 25, 1-(adamantan-2-yl)-3,3-dimethyl-4-(3-chloro-2-fluorophenyl)azetidin-2-one]
0.0039 | 0.025 | CC1(C)C(=O)N(C2C3CC4CC(C3)CC2C4)C1c1cccc(Cl)c1 (stereo not shown) [Example 53, 1-(adamantan-2-yl)-3,3-dimethyl-4-(3-chlorophenyl)azetidin-2-one]
0.057 | 0.053 | CC1(C)C(=O)N([C@H]2C3CC4CC2C[C@](C(N)=O)(C4)C3)C1c1cccc2cccnc12 (stereo partly drawn) [Example 20, trans-4-[2-(quinolin-8-yl)-3,3-dimethyl-4-oxoazetidin-1-yl]-1-adamantane carboxyamide]
0.0039 | 0.87 | CSc1ccc(C2N(C3C4CC5CC(C4)CC3C5)C(=O)C2(C)C)cc1 (stereo not shown) [Example 55, 1-(adamantan-2-yl)-3,3-dimethyl-4-[4-(methylthio)phenyl]azetidin-2-one]
0.051 | 0.24 | COC(=O)[C@]12CC3CC(C1)[C@@H](N1C(=O)C(C)(C)C1c1cccc4c1OCO4)C(C3)C2 (stereo partly drawn) [Example 13, methyl trans-4-[2-(benzo[d][1,3]dioxol-4-yl)-3,3-dimethyl-4-oxoazetidin-1-yl]-1-adamantane carboxylate]
0.015 | 0.076 | CC1(C)C(=O)N(C2C3CC4CC(C3)CC2C4)C1c1cc(Cl)cc(Cl)c1 (stereo not shown) [Example 31, 1-(adamantan-2-yl)-3,3-dimethyl-4-(3,5-dichlorophenyl)azetidin-2-one]
0.0081 | 0.0035 | CC1(C)C(=O)N(C2C3CC4CC(C3)CC2C4)C1c1cccc2ccccc12 (stereo not shown) [Example 45, 1-(adamantan-2-yl)-3,3-dimethyl-4-(naphthalen-1-yl)azetidin-2-one]
0.029 | 0.16 | CC1(C)C(=O)N(C2C3CC4CC(C3)CC2C4)C1c1cccc(C(F)(F)F)c1F (stereo not shown) [Example 28, 1-(adamantan-2-yl)-3,3-dimethyl-4-(2-fluoro-3-trifluoromethylphenyl)azetidin-2-one]
0.065 | 0.029 | CC1(C)C(=O)N(C2C3CC4CC(C3)CC2C4)C1c1cccc2c1OCC=CC2 (stereo not shown) [Example 67, 1-(adamantan-2-yl)-4-(2,5-dihydrobenzo[b]oxepin-9-yl)-3,3-dimethylazetidin-2-one]
0.0046 | 0.027 | CC1(C)C(=O)N([C@H]2C3CC4CC2C[C@](F)(C4)C3)C1c1cccc(Cl)c1Cl (stereo partly drawn) [Example 52, trans-1-(5-fluoroadamantan-2-yl)-3,3-dimethyl-4-(2,3-dichlorophenyl)azetidin-2-one]
0.08 | – | CC1(C)C(=O)N([C@H]2C3CC4CC2C[C@](C(N)=O)(C4)C3)C1c1ccnc2ccccc12 (stereo partly drawn) [Example 51, trans-4-[2-(quinolin-4-yl)-3,3-dimethyl-4-oxoazetidin-1-yl]-1-adamantane carboxyamide]
0.0081 | 0.029 | CC1(C)C(=O)N([C@H]2C3CC4CC2C[C@](O)(C4)C3)C1c1cccc(Cl)c1Cl (stereo partly drawn) [Example 46, trans-1-(5-hydroxyadamantan-2-yl)-3,3-dimethyl-4-(2,3-dichlorophenyl)azetidin-2-one]
0.019 | 0.034 | COC(=O)[C@]12CC3CC(C1)[C@@H](N1C(=O)C(C)(C)C1c1cccc4ccccc14)C(C3)C2 (stereo partly drawn) [Example 10, methyl trans-4-[2-(naphthalen-1-yl)-3,3-dimethyl-4-oxoazetidin-1-yl]-1-adamantane carboxylate]
0.025 | – | CC1(C)C(=O)N(C2C3CC4CC(C3)CC2C4)C1c1ccc(Br)cc1 (stereo not shown) [Example 43, 1-(adamantan-2-yl)-3,3-dimethyl-4-(4-bromophenyl)azetidin-2-one]
0.024 | – | CC1(C)C(=O)N(C2C3CC4CC(C3)CC2C4)C1c1ccc(F)c(C(F)(F)F)c1 (stereo not shown) [Example 32, 1-(adamantan-2-yl)-3,3-dimethyl-4-(4-fluoro-3-trifluoromethylphenyl)azetidin-2-one]
0.091 | – | CC1(C)C(=O)N(C2C3CC4CC(C3)CC2C4)C1c1cc(F)c(F)c(F)c1 (stereo not shown) [Example 36, 1-(adamantan-2-yl)-3,3-dimethyl-4-(3,4,5-trifluorophenyl)azetidin-2-one]
0.91 | – | CC1(C)C(=O)N(C2C3CC4CC(C3)CC2C4)C1c1cc(C(F)(F)F)cc(C(F)(F)F)c1 (stereo not shown) [Example 54, 1-(adamantan-2-yl)-3,3-dimethyl-4-[3,5-bis(trifluoromethyl)phenyl]azetidin-2-one]
0.066 | – | CC1(C)C(=O)N([C@H]2C3CC4CC2C[C@](C(=O)O)(C4)C3)C1c1cccc(Cl)c1Cl (stereo partly drawn) [Example 8, trans-4-[2-(2,3-Dichlorophenyl)-3,3-dimethyl-4-oxoazetidin-1-yl]-1-adamantane carboxylic acid]
0.1 | – | COC(=O)[C@]12CC3CC(C1)[C@@H](N1C(=O)C(C)(C)C1c1ccnc4ccccc14)C(C3)C2 (stereo partly drawn) [Example 49, methyl trans-4-[2-(quinolin-4-yl)-3,3-dimethyl-4-oxoazetidin-1-yl]-1-adamantane carboxylate]
